# Entries after “also recorded” stand apart in the source; their conditions may differ.
# Tests used:
# [1] = biological target: mGlu7 (Rattus norvegicus (Rat), UniProt P35400); test: mGlu7 GIRK thallium flux assay; format: cell-based; details: full L-AP4 concentration-response ± 10 μM compound
# [2] = In vivo PK in rats, i.v. administration; set-up: species or system rat; details: 2 mg/kg
# [3] = In vivo PK in rats, i.p. administration; details: 10 mg/kg; for Kp at 30 min: rat, brain and plasma, ip
# [4] = biological target: T1, mGlu2 (Rattus norvegicus (Rat), UniProt P31421); test: HEK293A mGlu2 Gα15 calcium assay; format: cell-based; details: presence of an EC20 of glutamate
# [5] = biological target: T1, mGlu2; test: mGlu2 GIRK thallium flux assay; details: for General activity at mGlu2: full agonist concentration-response ± 10 μM compound; for Emin, minimal response of the concentration-response of agonist: mGlu2, 10 μM compound;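 for all read-outs here: Cell-based assay, rate of fluorescence rise right after thallium plus agonist addition read on a kinetic imaging plate reader, normalized to vehicle and maximal agonist control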
# [6] = In vivo PK in rats, p.o. administration; set-up: species or system rat; details: 20 mg/kg
# [7] = biological target: T2, mGlu3 (Rattus norvegicus (Rat), UniProt P31422); test: mGlu3 GIRK thallium flux assay; details: for General activity at mGlu3: full agonist concentration-response ± 10 μM compound; for Emin, minimal response of the concentration-response of agonist: mGlu3, 10 μM compound;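 for all read-outs here: kinetic fluorescence slope read shortly after thallium plus agonist addition, scaled between vehicle and maximal agonist control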
# [8] = biological target: mGlu5 (Rattus norvegicus (Rat), UniProt P31424); test: mGlu5 calcium assay; format: cell-based; details: full agonist concentration-response ± 10 μM compound
# [9] = biological target: mGlu6 (Rattus norvegicus (Rat), UniProt P35349); test: mGlu6 GIRK thallium flux assay; format: cell-based; details: full agonist concentration-response ± 10 μM compound
# [10] = biological target: T2, mGlu3; test: TREx293 mGlu3 Gα15 calcium assay; format: cell-based; details: presence of an EC20 of glutamate, 20 ng/mL Tet for 20 h
# Protocol: In order to generate a tetracycline (Tet)-inducible rat mGlu3 stable cell line to be used for a calcium mobilization assay, TREx293 cells (Invitrogen) were transfected with mouse Gα15-pCMV6 plasmid (Origene) using Fugene6 (Promega). The cells were selected for Gα15 expression with 1 mg/mL G418 in the presence of 10 μg/ml blasticidin to maintain Tet Repressor expression. Two weeks after the selection, polyclonal TREx293 Gα15 cells were obtained. The entire coding sequence of rat mGlu3 was amplified by polymerase chain reaction (PCR) and cloned into the Tet-inducible expression plasmid pcDNA5/TO (Invitrogen). Rat mGlu3-pcDNA5/TO was transfected into TREx293 Gα15 cells and selected for mGlu3 expression with 200 μg/ml hygromycin in the presence of G418 and blasticidin.
# For mGlu3 the TREx tetracycline-inducible system (Invitrogen) was utilized. […] In the absence of Tet, no measurable expression of mGlu3 is detected either by Western blot (FIG. 3A) or by functional response to calcium mobilization (FIG. 3B). […] Data were analyzed using nonlinear regression. Data were obtained from three separate experiments performed in triplicate, normalized to the response to 100 μM glutamate in each experiment, and are expressed as the mean±SEM.
# [11] = biological target: mGlu8 (Rattus norvegicus (Rat), UniProt P70579); test: mGlu8 GIRK thallium flux assay; format: cell-based; details: full agonist concentration-response ± 10 μM compound
# [12] = biological target: mGlu4 (Rattus norvegicus (Rat), UniProt P31423); test: mGlu4 GIRK thallium flux assay; format: cell-based; details: full agonist concentration-response ± 10 μM compound
# [13] = biological target: mGlu1 (Rattus norvegicus (Rat), UniProt P23385); test: mGlu1 calcium assay; format: cell-based; details: full agonist concentration-response ± 10 μM compound
# [14] = rat, microsomes, 1 h
# [15] = format: in vitro ADME; details: rat, 1 h
# [16] = 100 μM, pH 7.2
# [17] = biological target: Transporter, Serotonin (5-Hydroxytryptamine) (SERT) (Homo sapiens (Human), UniProt P31645); test: PDSP radioligand binding; details: displacement of radioligand
# [18] = biological target: Dopamine D5 (Homo sapiens (Human), UniProt P21918); test: PDSP radioligand binding; details: Dopamine D5, 10 μM, displacement of radioligand
# [19] = biological target: Histamine H1 (Homo sapiens (Human), UniProt P35367); test: PDSP radioligand binding; details: Histamine H1, 10 μM, displacement of radioligand
# [20] = biological target: Muscarinic M4 (Homo sapiens (Human), UniProt P08173); test: PDSP radioligand binding; details: Muscarinic M4, 10 μM, displacement of radioligand
# [21] = biological target: Peripheral benzodiazepine receptor ([3H]PK11195) (Rattus norvegicus (Rat), UniProt P16257); test: PDSP radioligand binding
# [22] = biological target: Dopamine D2 (Homo sapiens (Human), UniProt P14416); test: PDSP radioligand binding; details: Dopamine D2, 10 μM, displacement of radioligand
# [23] = tested on: forty-five CNS receptors; test: CNS receptors panel (NIMH PDSP), radioligand binding; details: 10 μM
# [24] = biological target: Adrenergic α2C (Homo sapiens (Human), UniProt P18825); test: PDSP radioligand binding; details: displacement of radioligand
# [25] = biological target: Serotonin (5-Hydroxytryptamine) 5-HT2A (Homo sapiens (Human), UniProt P28223); test: PDSP radioligand binding; details: displacement of radioligand
# [26] = biological target: Muscarinic M2 (Homo sapiens (Human), UniProt P08172); test: PDSP radioligand binding; details: Muscarinic M2, 10 μM, displacement of radioligand
# [27] = rat, in vivo, ip, 10 mg/kg
# [28] = tested on: cocaine-maintained responding in rats; test: Cocaine self-administration experiment; format: in vivo, rat
# Protocol: (§1) Subjects. Male Wistar rats (Charles River Laboratories, Raleigh, N.C.) weighing 300-350 g at the beginning of each experiment were housed in pairs in standard rat Plexiglas cages with food and water available ad libitum, except during food training and the food self-administration experiment (see below). Rats were maintained in a climate-controlled room at 21° C. on a 12 h reverse light/dark cycle and all experiments were conducted during the dark (i.e., active) phase (7:00 h-19:00 h) of the cycle under dim red lighting. All procedures were conducted in accordance with the guidelines from the National Institutes of Health and the Association for the Assessment and Accreditation of Laboratory Animal Care and were approved by the Institutional Animal Care and Use Committee.
# Drugs. Cocaine hydrochloride (National Institute on Drug Abuse, Bethesda, Md.) was dissolved in sterile physiological saline and filtered through a 0.22 μm syringe filter (Fisher Scientific, Pittsburgh, Pa.) for sterilization purposes.
# Food Training. […]
# (§2) Statistical Analyses. […] Significant effects were further analyzed with Tukey post hoc tests. […]
# [29] = tested on: food-maintained responding in rats; test: Food self-administration experiment; format: in vivo, rat; details: rats, 0, 10, 20, 40 mg/kg i.p., 60 min pretreatment
# Protocol: as §1
# Food Training. Details regarding the experimental procedures have been described previously.^37 All rats were placed under food restriction (20 g food/day) and trained during daily 1 hr sessions to lever press for 45 mg food pellets (Research Diets, New Brunswick, N.J.) under a fixed ratio 1 reinforcement schedule with a 1 s time-out period (FR1 TO1s). Successful responses were followed by illumination of a cue light for the duration of the time-out period, when lever presses had no consequence. […]
# as §2
# [30] = compound concentration-response in presence and absence of EC20 glutamate
# T1 sequence (P31421 19-872): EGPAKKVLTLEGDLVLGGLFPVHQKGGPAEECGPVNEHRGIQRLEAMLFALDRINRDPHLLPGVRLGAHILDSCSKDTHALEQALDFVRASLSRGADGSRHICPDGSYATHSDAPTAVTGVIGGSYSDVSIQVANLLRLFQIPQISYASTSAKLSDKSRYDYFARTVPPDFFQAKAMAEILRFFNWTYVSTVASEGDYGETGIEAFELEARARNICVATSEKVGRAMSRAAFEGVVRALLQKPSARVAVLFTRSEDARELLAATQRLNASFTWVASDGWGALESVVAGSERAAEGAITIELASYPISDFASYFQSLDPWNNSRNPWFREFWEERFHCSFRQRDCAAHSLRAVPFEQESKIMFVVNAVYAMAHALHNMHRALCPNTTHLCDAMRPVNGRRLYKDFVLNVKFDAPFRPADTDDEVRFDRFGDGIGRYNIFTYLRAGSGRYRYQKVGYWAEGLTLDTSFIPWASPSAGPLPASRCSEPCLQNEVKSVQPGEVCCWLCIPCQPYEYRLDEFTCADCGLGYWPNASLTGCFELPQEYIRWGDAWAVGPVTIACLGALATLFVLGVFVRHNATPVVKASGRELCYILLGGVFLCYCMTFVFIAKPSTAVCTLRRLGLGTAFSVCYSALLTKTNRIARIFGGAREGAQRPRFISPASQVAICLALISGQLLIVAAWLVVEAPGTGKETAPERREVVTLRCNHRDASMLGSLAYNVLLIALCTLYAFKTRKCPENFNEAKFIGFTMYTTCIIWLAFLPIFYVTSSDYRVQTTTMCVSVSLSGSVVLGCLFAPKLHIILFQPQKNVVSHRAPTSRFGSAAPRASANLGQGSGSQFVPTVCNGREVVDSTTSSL
# mGlu5, sequence (P31424 21-1203): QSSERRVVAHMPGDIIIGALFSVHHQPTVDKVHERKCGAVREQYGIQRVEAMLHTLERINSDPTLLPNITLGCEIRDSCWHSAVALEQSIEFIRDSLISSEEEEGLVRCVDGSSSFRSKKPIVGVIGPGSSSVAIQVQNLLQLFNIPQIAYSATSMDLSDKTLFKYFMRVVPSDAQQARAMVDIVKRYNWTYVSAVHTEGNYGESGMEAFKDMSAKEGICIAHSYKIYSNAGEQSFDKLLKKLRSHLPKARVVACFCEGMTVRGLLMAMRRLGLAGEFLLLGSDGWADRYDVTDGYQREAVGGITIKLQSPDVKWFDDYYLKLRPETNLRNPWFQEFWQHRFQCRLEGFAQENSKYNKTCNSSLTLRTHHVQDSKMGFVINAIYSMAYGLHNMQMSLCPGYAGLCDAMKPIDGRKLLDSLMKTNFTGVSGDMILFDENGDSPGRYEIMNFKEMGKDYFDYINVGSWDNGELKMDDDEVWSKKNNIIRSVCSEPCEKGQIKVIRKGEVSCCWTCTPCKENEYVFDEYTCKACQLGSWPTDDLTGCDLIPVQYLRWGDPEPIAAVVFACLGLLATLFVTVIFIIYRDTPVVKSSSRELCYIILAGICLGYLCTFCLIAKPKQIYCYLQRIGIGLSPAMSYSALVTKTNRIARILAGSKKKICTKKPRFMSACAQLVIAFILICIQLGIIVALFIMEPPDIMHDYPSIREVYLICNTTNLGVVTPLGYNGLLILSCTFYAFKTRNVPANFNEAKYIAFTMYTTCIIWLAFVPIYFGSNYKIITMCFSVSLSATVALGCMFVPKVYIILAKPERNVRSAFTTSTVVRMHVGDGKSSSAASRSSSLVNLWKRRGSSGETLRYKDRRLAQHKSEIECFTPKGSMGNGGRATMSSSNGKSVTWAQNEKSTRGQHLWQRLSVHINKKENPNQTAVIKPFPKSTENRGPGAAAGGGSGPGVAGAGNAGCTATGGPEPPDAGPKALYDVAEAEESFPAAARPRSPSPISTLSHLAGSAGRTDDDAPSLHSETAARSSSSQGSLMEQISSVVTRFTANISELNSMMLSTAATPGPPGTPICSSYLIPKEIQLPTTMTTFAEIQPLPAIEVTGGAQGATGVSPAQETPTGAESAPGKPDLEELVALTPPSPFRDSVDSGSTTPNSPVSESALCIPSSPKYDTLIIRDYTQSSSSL
# T2 sequence (P31422 23-879): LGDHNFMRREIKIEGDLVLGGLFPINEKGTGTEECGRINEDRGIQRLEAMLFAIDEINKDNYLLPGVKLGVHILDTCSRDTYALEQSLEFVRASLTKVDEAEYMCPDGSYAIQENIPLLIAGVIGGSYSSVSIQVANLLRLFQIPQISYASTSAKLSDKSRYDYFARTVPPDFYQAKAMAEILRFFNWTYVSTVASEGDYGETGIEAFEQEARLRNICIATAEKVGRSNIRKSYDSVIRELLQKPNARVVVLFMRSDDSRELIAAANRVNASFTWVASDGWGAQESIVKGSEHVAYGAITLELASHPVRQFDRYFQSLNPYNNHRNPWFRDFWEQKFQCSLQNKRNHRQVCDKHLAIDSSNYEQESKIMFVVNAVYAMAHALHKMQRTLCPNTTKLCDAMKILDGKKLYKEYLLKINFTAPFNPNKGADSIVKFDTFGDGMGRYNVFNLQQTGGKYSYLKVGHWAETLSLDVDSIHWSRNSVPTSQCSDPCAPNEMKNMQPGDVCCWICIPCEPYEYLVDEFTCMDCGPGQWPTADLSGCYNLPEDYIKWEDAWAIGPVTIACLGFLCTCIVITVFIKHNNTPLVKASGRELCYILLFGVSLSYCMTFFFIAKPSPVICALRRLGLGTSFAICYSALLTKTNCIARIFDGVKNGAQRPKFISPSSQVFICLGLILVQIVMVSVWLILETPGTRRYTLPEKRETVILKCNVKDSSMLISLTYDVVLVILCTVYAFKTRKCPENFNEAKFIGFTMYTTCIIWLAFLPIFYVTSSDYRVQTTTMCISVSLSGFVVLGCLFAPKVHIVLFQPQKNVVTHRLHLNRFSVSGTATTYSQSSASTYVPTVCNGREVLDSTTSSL
# mGlu4, sequence (P31423 33-912): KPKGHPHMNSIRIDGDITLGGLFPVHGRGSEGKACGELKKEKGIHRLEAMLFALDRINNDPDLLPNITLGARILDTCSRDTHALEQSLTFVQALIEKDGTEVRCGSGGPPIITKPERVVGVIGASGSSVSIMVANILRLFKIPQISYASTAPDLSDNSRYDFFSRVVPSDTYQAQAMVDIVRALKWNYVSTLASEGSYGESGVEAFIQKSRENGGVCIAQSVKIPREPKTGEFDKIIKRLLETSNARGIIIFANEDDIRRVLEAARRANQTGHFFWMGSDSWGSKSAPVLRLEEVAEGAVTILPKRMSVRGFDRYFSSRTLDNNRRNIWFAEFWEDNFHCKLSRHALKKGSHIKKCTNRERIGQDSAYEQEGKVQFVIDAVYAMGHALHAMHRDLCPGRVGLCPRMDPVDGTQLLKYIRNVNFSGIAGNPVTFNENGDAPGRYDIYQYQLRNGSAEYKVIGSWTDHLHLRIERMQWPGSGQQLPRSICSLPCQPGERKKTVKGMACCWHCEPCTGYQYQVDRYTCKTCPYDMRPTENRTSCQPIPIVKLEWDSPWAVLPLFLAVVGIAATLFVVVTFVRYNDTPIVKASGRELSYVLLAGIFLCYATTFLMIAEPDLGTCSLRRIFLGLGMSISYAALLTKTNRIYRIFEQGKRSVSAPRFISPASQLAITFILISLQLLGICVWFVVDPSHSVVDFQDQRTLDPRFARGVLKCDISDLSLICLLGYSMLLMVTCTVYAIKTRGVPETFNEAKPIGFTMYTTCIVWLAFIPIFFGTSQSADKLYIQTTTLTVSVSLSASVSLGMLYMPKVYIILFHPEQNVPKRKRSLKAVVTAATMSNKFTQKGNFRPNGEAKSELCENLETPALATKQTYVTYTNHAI
# mGlu1, sequence (P23385 19-1199): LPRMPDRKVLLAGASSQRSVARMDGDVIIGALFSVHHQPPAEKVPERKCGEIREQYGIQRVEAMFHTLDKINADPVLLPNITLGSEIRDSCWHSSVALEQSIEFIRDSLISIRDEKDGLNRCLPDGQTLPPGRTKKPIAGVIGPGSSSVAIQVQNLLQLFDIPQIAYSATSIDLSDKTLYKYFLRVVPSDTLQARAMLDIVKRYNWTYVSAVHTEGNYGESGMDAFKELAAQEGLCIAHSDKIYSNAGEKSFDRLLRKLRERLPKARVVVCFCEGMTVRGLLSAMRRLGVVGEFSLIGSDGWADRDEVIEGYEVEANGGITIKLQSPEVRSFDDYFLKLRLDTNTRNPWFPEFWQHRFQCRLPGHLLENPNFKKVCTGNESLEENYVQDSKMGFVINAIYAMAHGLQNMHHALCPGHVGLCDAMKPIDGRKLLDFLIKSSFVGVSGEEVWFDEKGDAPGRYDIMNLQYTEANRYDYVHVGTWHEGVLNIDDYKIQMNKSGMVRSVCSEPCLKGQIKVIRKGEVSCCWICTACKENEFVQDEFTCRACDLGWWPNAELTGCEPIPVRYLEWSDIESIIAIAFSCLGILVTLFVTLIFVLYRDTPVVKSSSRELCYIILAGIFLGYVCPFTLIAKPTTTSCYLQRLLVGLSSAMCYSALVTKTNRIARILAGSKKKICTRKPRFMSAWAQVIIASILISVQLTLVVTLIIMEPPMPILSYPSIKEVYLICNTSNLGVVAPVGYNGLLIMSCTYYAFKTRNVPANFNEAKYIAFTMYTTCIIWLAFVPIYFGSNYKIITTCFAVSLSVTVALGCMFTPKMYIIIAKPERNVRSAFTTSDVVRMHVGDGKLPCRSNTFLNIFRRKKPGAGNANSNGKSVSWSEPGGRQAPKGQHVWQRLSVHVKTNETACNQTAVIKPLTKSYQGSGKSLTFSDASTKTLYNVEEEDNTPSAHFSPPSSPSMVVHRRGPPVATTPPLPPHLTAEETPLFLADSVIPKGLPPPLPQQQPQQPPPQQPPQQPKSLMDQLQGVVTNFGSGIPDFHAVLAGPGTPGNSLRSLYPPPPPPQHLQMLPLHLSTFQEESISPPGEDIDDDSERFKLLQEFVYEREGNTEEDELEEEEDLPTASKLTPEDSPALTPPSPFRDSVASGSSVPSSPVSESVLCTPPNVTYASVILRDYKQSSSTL
Compound,General activity at mGlu7 [1],Kp at 30 min [3],"Plasma, maximum concentration ([3]; rats, i.p., Tmax 30 min)",General activity at mGlu2 [5],"Emin, minimal response of the concentration-response of agonist [5]",General activity at mGlu3 [7],"Emin, minimal response of the concentration-response of agonist [7]",General activity at mGlu5 [8],General activity at mGlu6 [9],General activity at mGlu8 [11],General activity at mGlu4 [12],General activity at mGlu1 [13],PAMPA (LogPapp) [16],also measured
"COc1cc(C(=O)O)ccc1OCCCCOc1ccc(C(=O)CC(C)C)c(O)c1C [Compound 44, 4-{4-[3-Hydroxy-2-methyl-4-(3-methylbutanoyl)phenoxy]butoxy}-3-methoxybenzoic acid]",inactive^b,0.03 ± 0.01,10.57 ± 2.52 µM,Ago-PAM,Emin = 90%,PAM,Emin = 4%,inactive^b,inactive^b,inactive^b,inactive^b,inactive^b,–,"AUC(0→t) [2]: 304.6 ± 25.8 (μmol/L)*min; Cmax ([2]; rat, iv, plasma): 6.43 ± 0.39 µM; Vd ([2]; rat, plasma, iv, read-out: Vdss): 0.55 ± 0.04 L/kg; Brain, maximum concentration ([3]; rats, i.p., Tmax 30 min): 0.23 ± 0.10 µM; activity in HEK293A mGlu2 Gα15 calcium assay [4]: behaves as a PAM; also recorded: PAM activity; intrinsic agonist activity towards mGlu2 (Agonist Mode) ([5]; absence of an EC20 concentration of agonist): intrinsic agonist activity; activity toward mGlu2 in GIRK thallium-flux assay [5, 30]: Ago-PAM activity; AUC(0→t) [6]: 1274.6 ± 246.3 (μmol/L) min; F, oral bioavailability [6]: 41.9%; Plasma ([6]; harvested at or near the Tmax): 16.38 ± 1.1 µM; Kp ([6]; rat, brain and plasma, po, read-out: Brain:Plasma ratio): 0.05 ± 0.01; Tmax ([6]; rat, plasma, po): 1.5 h; Cmax ([6]; rat, po, plasma): 2.75 ± 0.47 µM; activity toward mGlu3 in GIRK thallium-flux assay [7, 30]: PAM activity; activity in TREx293 mGlu3 Gα15 calcium assay [10]: demonstrates mGlu3 PAM activity"
"COc1cc(C(=O)O)ccc1OCCCCOc1ccc(C(=O)CC2CCCC2)c(O)c1C [Compound 45, 4-{4-[4-(2-Cyclopentylacetyl)-3-hydroxy-2-methylphenoxy]butoxy}-methoxybenzoic acid]",–,–,–,–,–,–,–,–,–,–,–,–,−6.54,"Microsomal stability, percent remaining [14]: 31%; Plasma Stability, percent remaining [15]: 100%"
"COc1ccc(C(=O)O)cc1OCCCCOc1ccc(C(=O)CC(C)(C)C)c(O)c1C [compound 72, 3-(4-(4-(3,3-Dimethylbutanoyl)-3-hydroxy-2-methylphenoxy)butoxy)-4-methoxybenzoic acid]",inactive^b,–,2.44 ± 2.19 µM,Ago-PAM,Emin = 72%,Ago-PAM,Emin = 54%,inactive^b,inactive^b,inactive^b,inactive^b,inactive^b,–,inhibition at 10 µM [17]: 0.3%; inhibition at 10 µM [18]: -0.9%; inhibition at 10 µM [19]: 0.2%; inhibition at 10 µM [20]: -0.9%; inhibition at 10 µM [21]: 1%; inhibition at 10 µM [22]: 1%; binding activity at forty-five CNS receptors [23]: no binding activity was detected; inhibition at 10 µM [24]: 0.6%; inhibition at 10 µM [25]: -0.6%; inhibition at 10 µM [26]: -1%
COc1cc(C(=O)O)ccc1OCCCCOc1ccc(C(=O)CC(C)(C)C)c(O)c1C [compound 73],inactive^b,–,–,–,–,Ago-PAM,–,inactive^b,PAM,inactive^b,inactive^b,inactive^b,−5.46,Brain: Plasma [27]: 0.02 ± 0.01
"Cc1c(OCCCCOc2ccc(C(=O)CC(C)(C)C)c(O)c2C)cccc1C(=O)O [compound 74, 3-(4-(4-(3,3-Dimethylbutanoyl)-3-hydroxy-2-methylphenoxy)butoxy)-2-methylbenzoic acid]",–,0.03 ± 0.01,–,–,–,–,–,–,–,–,–,–,–,"cocaine-maintained responding ([28]; rats, 0, 10, 20, 40 mg/kg i.p., 60 min pretreatment): dose-dependently decreased; also recorded: decreasing cocaine-maintained responding; cocaine-maintained responding compared with food-maintained responding ([28]; rats, highest dose tested 40 mg/kg i.p., p<0.05): decreased to a greater extent than food-maintained responding; also recorded: cocaine-maintained responding was significantly lower than food-maintained responding; food-maintained responding [29]: dose-dependently decreased"
